Source: patent US20210260010A1, “COMPOSITIONS AND METHODS FOR THE REDUCTION OR TREATMENT OF INFLAMMATION” (AXCELLA HEALTH INC., priority 2018, published 2021)

System: MCP-1
Assay: MCP-1 chemokine secretion by TNFα-stimulated primary human hepatic stellate cells (ELISA)
Type: cell-based
Conditions: for MCP-1 chemokine secretion, per-cell normalized, fold change from plasma amino acid background: primary human hepatic stellate cells, two donors, TNFα 3 ng/mL, 12 hours; for Fold Change MCP1 Secretion Normalized Per Cell, Mean: donor 3 hepatic stellate cells, TNFα, fold change from plasma amino acid background
Experimental: Primary human hepatic stellate cells were obtained from Samsara Sciences and grown in Complete HSC Medium to […] confluence in T75 or T150 flasks below passage 10 were seeded into 96-well plates and incubated for 6 hours at 37° C., 5% CO2 in a humidified incubator. After 6 hours, plates were removed from the incubator washed with DPBS and pretreated (±single amino acid dropout, ±supplemental amino acid dose; see experiment for medium composition) overnight, ˜14-15 hours. After overnight pretreatment, the medium was removed from the cells, and the same pretreatment medium, now supplemented with 3 ng/mL TNFα was applied. Plates were incubated for 12 hours at 37° C., 5% CO2. After 12 hour stimulus with TNFα, supernatant was removed and frozen at −80° C. in two separate aliquots. Plates were washed and incubated with CCK-8 viability reagent (Dojindo) for 1 hour. Viability was measured on the Synergy plate reader. Immediately, the medium was removed and the plates were fixed for immunofluorescence staining.
Human CCL2/MCP1 and Human IL-6 were measured by ELISA (Human […] DuoSet ELISA, R&D Systems; Human IL-6 DuoSet ELISA, R&D Systems) at ⅕ and 1/20 dilution in 1× Reagent Diluent (Reagent Ancillary Kit 2, R&D Systems). Data were normalized to the specific per well cell density determined by Hoechst stained nuclei count.
Tables 35-38 show per-cell normalized MCP-1 chemokine secretion in primary human hepatic stellate cells from two donors as a fold change from the plasma amino acid background. Statistical significance calculated by one-way ANOVA with Dunnett's multiple comparison test within each treatment group.

## N=C(N)NCCC[C@H](N)C(=O)O [Arginine, L-Arginine]
Donor 3, Conc. 109 μM (plasma background, reference)
  Fold Change MCP1 Secretion Normalized Per Cell: 1.0000
Donor 3, Conc. 1088 μM
  Fold Change MCP1 Secretion Normalized Per Cell: 0.9435
Donor 3, Conc. 2720 μM
  Fold Change MCP1 Secretion Normalized Per Cell: 0.8821
Donor 3, Conc. 5440 μM
  Fold Change MCP1 Secretion Normalized Per Cell: 0.7840
Donor 4, Conc. 109 μM (plasma background, reference)
  Fold Change MCP1 Secretion Normalized Per Cell: 1.0000
Donor 4, Conc. 1088 μM
  Fold Change MCP1 Secretion Normalized Per Cell: 1.0453
Donor 4, Conc. 2720 μM
  Fold Change MCP1 Secretion Normalized Per Cell: 1.0446
Donor 4, Conc. 5440 μM
  Fold Change MCP1 Secretion Normalized Per Cell: 0.9456
  MCP-1 chemokine secretion, per-cell normalized, fold change from plasma amino acid background: no significant impact

## NC(=O)CC[C@H](N)C(=O)O [Glutamine, L-Glutamine]
Donor 3, Conc. 562 μM (plasma background, reference)
  Fold Change MCP1 Secretion Normalized Per Cell: 1.0000
Donor 3, Conc. 749 μM
  Fold Change MCP1 Secretion Normalized Per Cell: 0.7048
Donor 3, Conc. 3747 μM
  Fold Change MCP1 Secretion Normalized Per Cell: 0.6036
Donor 3, Conc. 11242 μM
  Fold Change MCP1 Secretion Normalized Per Cell: 0.6106
Donor 3, Conc. 22484 μM
  Fold Change MCP1 Secretion Normalized Per Cell: 0.6212
Donor 4, Conc. 562 μM (plasma background, reference)
  Fold Change MCP1 Secretion Normalized Per Cell: 1.0000
  MCP-1 chemokine secretion, per-cell normalized, fold change from plasma amino acid background: reduced MCP1 secretion in both donors but was only statistically significant in one of two donors

## CC(C)C[C@H](N)C(=O)O [Leucine, L-Leucine]
Donor 3, Conc. 153 μM (plasma background, reference)
  Fold Change MCP1 Secretion Normalized Per Cell: 1.0000
Donor 3, Conc. 3054 μM
  Fold Change MCP1 Secretion Normalized Per Cell: 1.1479
Donor 3, Conc. 7635 μM
  Fold Change MCP1 Secretion Normalized Per Cell: 1.3054
Donor 3, Conc. 15270 μM
  Fold Change MCP1 Secretion Normalized Per Cell: 1.1808
Donor 4, Conc. 153 μM (plasma background, reference)
  Fold Change MCP1 Secretion Normalized Per Cell: 1.0000
  MCP-1 chemokine secretion, per-cell normalized, fold change from plasma amino acid background: no significant impact

## CC(C)[C@H](N)C(=O)O [Valine, L-Valine]
Donor 3, Conc. 234 μM (plasma background, reference)
  Fold Change MCP1 Secretion Normalized Per Cell: 1.0000
Donor 3, Conc. 4684 μM
  Fold Change MCP1 Secretion Normalized Per Cell: 1.0630
Donor 3, Conc. 11710 μM
  Fold Change MCP1 Secretion Normalized Per Cell: 1.0204
Donor 3, Conc. 23420 μM
  Fold Change MCP1 Secretion Normalized Per Cell: 1.2651
Donor 4, Conc. 234 μM (plasma background, reference)
  Fold Change MCP1 Secretion Normalized Per Cell: 1.0000
  MCP-1 chemokine secretion, per-cell normalized, fold change from plasma amino acid background: no significant impact

## CC[C@H](C)[C@H](N)C(=O)O [Isoleucine, L-Isoleucine]
Donor 3, Conc. 66 μM (plasma background, reference)
  Fold Change MCP1 Secretion Normalized Per Cell: 1.0000
Donor 3, Conc. 1328 μM
  Fold Change MCP1 Secretion Normalized Per Cell: 1.5550
Donor 3, Conc. 3320 μM
  Fold Change MCP1 Secretion Normalized Per Cell: 1.2169
Donor 3, Conc. 6639 μM
  Fold Change MCP1 Secretion Normalized Per Cell: 1.2084
Donor 4, Conc. 66 μM (plasma background, reference)
  Fold Change MCP1 Secretion Normalized Per Cell: 1.0000

## CC(=O)N[C@@H](CS)C(=O)O [NAC, N-acetylcysteine]
Conc. 5 X
  Fold Change MCP1 Secretion Normalized Per Cell, Mean: 0.8492
Conc. 10 X
  Fold Change MCP1 Secretion Normalized Per Cell, Mean: 0.6565
Conc. 20 X
  Fold Change MCP1 Secretion Normalized Per Cell, Mean: 0.5413
Conc. 40 X
  Fold Change MCP1 Secretion Normalized Per Cell, Mean: 0.4485
Donor 3, Conc. 1000 μM
  Fold Change MCP1 Secretion Normalized Per Cell: 0.8492
Donor 3, Conc. 2500 μM
  Fold Change MCP1 Secretion Normalized Per Cell: 0.6565
Donor 3, Conc. 5000 μM
  Fold Change MCP1 Secretion Normalized Per Cell: 0.5413
Donor 3, Conc. 10000 μM
  Fold Change MCP1 Secretion Normalized Per Cell: 0.4485
Donor 4, Conc. 5 X
  Fold Change MCP1 Secretion Normalized Per Cell: 0.6437
Donor 4, Conc. 10 X
  Fold Change MCP1 Secretion Normalized Per Cell: 0.8033
Donor 4, Conc. 20 X
  Fold Change MCP1 Secretion Normalized Per Cell: 0.6728
Donor 4, Conc. 40 X
  Fold Change MCP1 Secretion Normalized Per Cell: 0.5011
  MCP-1 chemokine secretion, per-cell normalized, fold change from plasma amino acid background: significantly reduced
